Laboratory results as given in a melting point compilation (Tetko et al.; mined from patent text by program, amines drawn as free bases though some values may be those of a salt).

melting point [°C]	Structure (SMILES)
82 to 84	CC#CCOc1ccc(S(=O)(=O)NC2(C(=O)NO)CCCCC2)cc1
103 to 105	CCCCOc1ccc(S(=O)(=O)NCCCCOc2ccc(-n3ccnc3)cc2)cc1
94 to 94.5	NC(=O)N(O)Cc1ccc2c(c1)CCN2CCCc1ccccc1
101 to 106	CCOC(=O)OC1CCC2(C)C3=C(CCC2C1)C1=CCC(C(C)CCCC(C)C)C1(C)CC3 (stereo not drawn)
144 to 146	CCOc1nc2ccccc2nc1N(CC)C(=O)N1CCN(c2cc(OC)cc(OC)c2)CC1
120	CCCN1CCCC(c2ccc(OC)c3c2CC(=O)N3)C1 (stereo not drawn)
96 to 97	CC(C)(C)OC(=O)C=Cc1ccc2ccccc2n1
103 to 104	COc1ccc(CCNC(=O)C2CCC2)cc1C
123 to 125	COC(=O)n1nc(Oc2c(F)cc(C(F)(F)F)cc2Cl)cc1C
173 to 175	CCCc1nnc2c(Cl)nc3ccccc3n12
83 to 85	CC(=O)C(=Cc1ccc(C#N)cc1)C(=O)C1CC1
258	O=C(c1ccc(O)c(Cc2ccc(=O)[nH]n2)c1)c1c(Cl)cc(Cl)cc1Cl
294 to 295	O=C(c1ccccc1)c1cccc(Cc2c(O)c3ccc(Cl)cc3[nH]c2=O)c1
231 to 233	COC(=O)c1ccc2ncc(C(=O)c3ccc(N4C[C@H](CNC(C)=O)OC4=O)cc3)n2c1
194 to 195	COc1cc(NC(=O)Nc2ccccc2C)cc(OC)c1-c1ccc(C[C@H](NC(=O)c2c(Cl)cccc2Cl)C(=O)O)cc1
84.5 to 86.5	CC(=O)c1ccc(-c2ccccc2F)cc1
187 to 189	O=C(CCCCl)Nc1nnc(-c2ccc(Br)cc2)s1
145 to 146	CN(C)c1ccc(NC(=O)N(C[C@H]2CCC[C@H](CN(C(=O)Nc3ccc(N(C)C)cc3)C3CCCCC3)C2)C2CCCCC2)cc1 (relative stereo)
110 to 111	CNC1c2c(O)c(C)cc(C)c2C2CCCCC21 (stereo not drawn)
187 to 191	CCCn1nc(C2CC2)c(C(N)=O)c1Cc1ccc(-c2ccccc2S(=O)(=O)NC(=O)c2ccccc2)cc1
100 to 101	CCCCCCCCCCCCCCCC(=O)NO

melting point [°C]	Structure (SMILES)
77	CCCc1n[nH]c(=O)n1C
201 to 210	CC(=O)c1ccc(C(=O)N2Cc3ccnn3Cc3ccccc32)cc1
135 to 138	CON(C)C(=O)c1cc(-c2ccccc2)n[nH]1
78	CN(C(=O)CBr)c1ccc(Cl)cc1Cc1ccccc1
165 to 166	CC(C)(C)c1cc(C(=O)c2cccs2)cc(CN2CCSCC2)c1O
184 to 186	Cc1n[nH]c(=O)cc1-c1ccc(OC2CCN(C(=O)OC(C)(C)C)CC2)cc1
173 to 175	COc1cc(OC)nc(NC(=O)NS(=O)(=O)Oc2ccccc2-c2csnn2)n1
181 to 182	O=C(O)CCc1conc1-c1ccc(Cl)c(Cl)c1
110 to 113	CCCc1c(O)ccc(C(=O)c2ccccc2O)c1O
183 to 186	CC1CCc2cc(F)cc3c(=O)c(C(=O)Cl)cn1c23 (stereo not drawn)
182 to 184	CC(=O)NC[C@H]1CN(c2cc(F)c(N3CCC(O)(COCC(F)(F)F)CC3)c(F)c2)C(=O)O1
65 to 66	CCN(CC)CCOC(=O)c1ccc(/C=C(\C)c2ccc3c(c2)C(C)(C)CCC3(C)C)cc1
185 to 187	O=C(O)CN1CCCCC1
123	COC(C(=O)O)c1nn(-c2ccc(Br)cc2)c2c1CCCC2 (stereo not drawn)
244 to 246	O=C(O)c1ccc2c(=O)n(Cc3ccc(Cl)cc3Cl)cnc2c1
87 to 89	COC(=O)[C@@H]1CSSCC(C)(C)C(=O)N1
112 to 114	Cc1oc(-c2ccccc2)nc1CCCc1ccc(CC(C(=O)O)c2cccnc2)cc1 (stereo not drawn)
223	Cc1cc(C(=O)Nc2cc(Oc3ccc4nc(NC(=O)C5CC5)cn4n3)ccc2C)n(C)n1
86 to 92	Cc1noc(C(=O)NC(C)C)c1C(=O)O
146 to 147	CC(C)=CCN1c2ccccc2NC(=O)C1(C)C
131 to 132	COc1cc(Cl)cc(Cl)c1C(=O)NC(C)(C)CO

melting point [°C]	Structure (SMILES)
189	O=C(NC(=O)N1CCC(Oc2ccc(Cl)cc2)CC1)c1ccc(O)cc1
184 to 186	COc1ccc(C)cc1NC(=O)Nc1ccc(N2CCN(Cc3ccccc3)CC2)cc1
161 to 163	CCc1cc(O)c2cnn(C(C)=O)c2c1
89 to 90	CCN(CC)C(=O)n1cc(F)c(S(=O)(=O)c2c(Cl)cc(Cl)cc2Cl)n1
69 to 73	CCC1SCCCN1C(=S)Nc1cccc(Cl)c1 (stereo not drawn)
224	Cc1cnc(N2CCN(CC[C@H]3CC[C@H](NC(=O)C4CCOCC4)CC3)CC2)c2c1OCC2
121 to 122	COCC(=O)c1cccc(S(N)(=O)=O)c1
84 to 86	CC(=O)SCCc1nc[nH]n1
203 to 204	CCOC(=O)c1nc(NC(=N)N=CN(C)C)sc1-c1ccncc1
100 to 105	CC#CCOc1ccc(OCC(=O)OCC)cc1
175 to 177	CN1C(C)(C)CC2(CC1(C)C)NC(=O)N(CC(O)COCC(O)COCC(O)CN1C(=O)NC3(CC(C)(C)N(C)C(C)(C)C3)C1=O)C2=O (stereo not drawn)
205 to 207	CNc1c(F)c(F)c(F)c2c1c(=O)c(C(=O)O)cn2C1CC1
61 to 63	CS(=O)(=O)Nc1ccc(SCCCCl)cc1
146	CC(C)(C)c1cccc(S(=O)(=O)n2c(Cc3cccc(C(=O)O)c3)cc3cc(C(F)(F)F)ccc32)c1
201 to 202	CCOC(=O)C1=C(C)Nc2ncnc(OC(C)C)c2C1c1ccccc1 (stereo not drawn)
86 to 88	CN(Cc1ccccc1)c1ccccc1C(=O)O
35	CCCCCC=CCC=CCCCCCCCCBr
115 to 117	CCc1cnc2c(c1)C(=O)N(C(C)(C(N)=O)C(C)C)C2=O (stereo not drawn)
98 to 101	CCOC(=O)N(c1ccccc1)c1cc(Cl)ccc1N

Further lines, the molecule ahead of its results:

Structure (SMILES)	melting point [°C]
Cn1cncc1COc1nn2c(-c3ccccc3)nnc2cc1-c1ccccc1	195 to 196
COc1cc(C)c2cc(C(C)O)ccc2c1C (stereo not drawn)	78
CN(C)C(=O)C(CCN1CCC(Nc2nc3cncnc3n2Cc2ccccn2)CC1)(c1ccccc1)c1ccccc1	192
COc1cc2c(cc1Cl)CCOC2c1ccc([N+](=O)[O-])cc1 (stereo not drawn)	150 to 153
O=c1ccc(S(=O)(=O)c2cc3ccccc3[nH]2)n[nH]1	248 to 249
COc1cc(Nc2nccc(-c3ccc(NC4CCCCC4O)nc3)n2)cc(OC)c1OC (stereo not drawn)	147 to 148
Cc1ccc(C2=NC(C)(C(C)C)C(=S)N2)cc1 (stereo not drawn)	167 to 170
COc1cc2ncnc(-c3cn(S(C)(=O)=O)c4ccccc34)c2cc1OC	> 220
O=C(Nc1ccc(Cl)c(C(F)(F)F)c1)Nc1ccc(Cl)cc1-c1nnn[nH]1	245 to 247
COc1cccc2oc(C(=O)c3cccc(C(F)(F)F)c3)c(C)c12	91 to 92
O=Cc1ccc(-c2ccc(-c3ccc(C=O)o3)cc2)o1	233 to 234
Cc1ncsc1C(C)(O)c1cccs1 (stereo not drawn)	146 to 148
Nc1ccc(S(=O)(=O)Nc2cccc3c(Cl)c[nH]c23)cn1	206 to 207
Cc1ccc(C(=O)Nc2cccc(C(F)(F)F)c2)cc1-c1ccc2ccncc2c1	157 to 159
COc1cc(C=C2COCC(=Cc3cc(OC)c(OC)c(OC)c3)C2=O)cc(OC)c1OC	187 to 189
N#CC1CN1C(=O)NS(=O)(=O)c1ccccc1 (stereo not drawn)	103 to 108
CSc1nc(Cl)nc2sc(C)cc12	111 to 112
COc1ccc(-c2nnc(N)nc2-c2ccc(OC)cc2)cc1	179 to 181
O=C1CC(CF)(CF)Oc2ccc(C(F)(F)F)cc21	73 to 74.5
CC(O)(C#CI)c1ccc(OC(F)(F)F)cc1 (stereo not drawn)	75 to 76
CC1(C)OC(=O)Nc2ccc(-c3cc(Cl)cc(C#N)c3)cc21	256 to 257

Structure (SMILES)	melting point [°C]
CCOc1cccc(-n2cc(-c3ccc4c(c3)OCO4)c3c(N)ncnc32)c1	153 to 155
CC(C)Oc1nc(-n2cccn2)nc(Cl)c1-c1c(F)cc(F)cc1F	106 to 107
CC(C)c1nn(-c2ccc(Cl)cn2)cc1CO	135 to 136
CC(C#N)(c1ccc(F)cc1)c1ccc([N+](=O)[O-])cc1Cl (stereo not drawn)	133
O=S(=O)(Oc1cccc(OS(=O)(=O)C(F)(F)F)c1OS(=O)(=O)C(F)(F)F)C(F)(F)F	47.5 to 48.5
Cc1nc2cnccc2n1-c1ccc(OCc2cccc(SCc3nc4cc(F)ccc4s3)c2)cc1	119 to 121
COc1ccc(N2CCN(c3c(C)c(C)c4c(c3C)C(C)(O)C(C)(C)O4)CC2)cc1 (stereo not drawn)	139 to 141
N#Cc1cnn(-c2c(Cl)cc(Cl)cc2Cl)c1C=O	152
CC(C)C(NS(=O)(=O)c1ccc(Cl)s1)c1ncnn1Cc1ccccc1 (stereo not drawn)	138 to 139
CCOC(=O)c1c(C)cc2nc(C(C)C)n(-c3ccccc3Cl)c(=O)c2c1C	115 to 116
CC(Cn1ncc2ccc(O)cc21)O[Si](C)(C)C(C)(C)C (stereo not drawn)	169 to 174
Cc1c(Br)cc(C(C)(C)C)c(O)c1-c1nc2cc(OC(F)(F)F)ccc2[nH]1	235 to 236
CN1CCN(c2cccc3c2C[C@H](NC(=O)c2ccc(N4CCCCC4)cc2)CC3)CC1	196 to 198
O=C1CCC2(CCC(=O)c3cc(Cl)ccc32)C(=O)N1 (stereo not drawn)	282 to 284
O=C(COc1ccc(Cl)cc1)N1CCc2occc2C1CN1CCC(O)C1 (stereo not drawn)	43 to 45
CC1CC(N)=C(C#N)C1C (stereo not drawn)	92 to 100
O=C1CCCc2ccc(OCc3ccc(Cl)c(Cl)c3)cc21	122 to 123
CN1CCNS(=O)(=O)c2cc(Oc3ccccc3)ccc21	128 to 131
COc1cccc2c1sn1c3ccccc3c(=O)cc21	245 to 251
O=C(NCc1ccccn1)Nc1cc(N2CC(c3ccc(F)cc3)CC2=O)ccn1 (stereo not drawn)	153 to 155
O=C1Nc2cccc(-c3cccc(NC(=O)c4ccc([N+](=O)[O-])cc4)c3)c2/C1=C/c1ccc[nH]1	157 to 159
